This is an account of results in US20230277669A1, “USES OF UROLITHINS” (Amazentis SA, priority 2022, published 2023).

The subject of one experiment is APTK-s.c. tumors. Put plainly: Oral UA in mice with established s.c. APTK tumors. Format: in vivo, C57BL/6 mice. The text has this: Oral UA confers anti-tumor effects in murine colorectal cancer in a T-cell dependent manner. (FIG. 1A) Schematic representation of AOM model and different UA containing diets. (FIG. 1B) Representative images of swiss-roll sections from AOM-induced colon tumors. Scale bars are 2 mm (upper row) and 300 µm (lower row), respectively. (FIG. 1C) Tumor incidence of AOM-induced tumors receiving different UA-containing diets; n=4/5/5. Data are mean ±SD, depicting one of two independent experiments. *p < 0.05 by two-sided t-test. (FIG. 1D) Average lesion size of AOM-induced tumors receiving different UA-containing diets; n=4/5/5. Data are mean ±SD, depicting one of two independent experiments. *p < 0.05 by two-sided t-test. (FIG. 1E) Relative number of CD45^+CD3^+ T cells in colons of AOM-treated mice at week 24 (n>7, pooled from two independent experiments). Data are mean ± SD, **p < 0.01 by two-sided t-test. (FIG. 1F) Organoid treatment scheme. APTK-organoids were incubated in the presence of UA or DMSO for the indicated time points, prior to flow cytometric analysis. (FIG. 1G) Quantification of lysosome formation as assessed by lysotracker MFI via flow cytometry after 24 h incubation at the presence of various UA concentrations (n=5/4/4). Depicts one out of two indepdent experiments. Data are mean ± SD, *p < 0.05; **p < 0.01 as established via two-sided t-test. (FIG. 1H) Mitotracker signal of APTK organoids incubated for 24 h at the presence of UA in vitro (n=4/4/4) and antigen presentation via MHC-I molecules (I) after 48 h of treatment (n=4/4/4). Results from one out of two independent experiments are shown. Data are mean ± SD, statistical analysis was performed via two-sided t-test, *p < 0.05; **p < 0.01, ****p < 0.0001. (FIG. 1I) Upregulation of MHC-I by UA. (FIG. 1J) Experimental setup of oral UA administration in mice with established APTK-s.c. tumors. Treatment diet was initiated eleven days after tumor injection and maintained until the end of the experiment. (FIG. 1K) Growth curve of mice subcutaneously transplanted with APTK tumors, receiving either UA-containing or control food (n=7 per group). Data are mean ± SD, ***p <0.001 by two-sided t-test. One out of two independent experiments are shown. (FIG. 1L) End point tumor weight, (FIG. 1M) CD8+ T cell infiltration in APTK-s.c. tumors assessed by flow cytometry, normalising total number of CD8^+ T cells to tumor weight (n=7 per group). Data are mean ± SD, statistical analysis was performed via Mann-Whitney test, *p < 0.05 and ***p <0.001. (FIG. 1N) Size of subcutaneous APTK tumors in Rag1^-/- mice receiving UA-containing or control food (n=7 per group). Treatment was initiated as depicted in FIG. 1J. Data are mean +-SD, depicting one out of two independent experiments. […]

The test system of experiment [1] is FoxP3+ T-regulatory cells. The conditions noted are these: cited from earlier work.

SMILES strings stand for the structures.

Turning to `O=c1oc2cc(O)ccc2c2ccc(O)cc12` [Urolithin A], the tumor growth entry was “exacerbated tumor growth in both control and UA-fed cohorts” in the experiment on APTK-s.c. tumors (CD8+ T cell depleting antibodies, UA-containing or control food); “sensitized APTK tumors to PD-1 blockade” with APTK-s.c. tumors (UA-containing food plus a-PD1); “significantly reduced tumor growth” in the experiment with APTK-s.c. tumors (high-dose UA diet (2.28 g/kg), started eleven days after tumor injection). The “CD8+ T cell infiltration” value with APTK-s.c. tumors (high-dose UA diet (2.28 g/kg)) is on record as “enhanced CD8^+ T cell infiltration”. For the same compound, the “FoxP3+ T-regulatory cells” value in experiment [1] is on record as “expanding FoxP3+ T-regulatory cells”.
